Results from PubChem BioAssay AID489035 (Sanford-Burnham Center for Chemical Genomics, 2010).
Calls of active or inactive are those of the source. How the calls were made is not given here.

Test system: Jurkat NF-kB reporter, TCR-induced, luciferase luminescence
Experiment: inhibitors of TCR-driven NF-kB activation, dose response, Jurkat cells, luminescence (AID 489035)

SMILES | IC50
O=S1(=O)Nc2c(ccc3cccnc23)-c2ccccc21 | 2.17 µM
O=C1CC(c2cc(F)ccc2F)c2cc3c(cc2N1)CCC3 (configuration not stated) | > 80 µM (inactive)
COc1cc(C(=O)N/N=C/c2cc([N+](=O)[O-])cs2)cc(OC)c1OC | > 80 µM (inactive)
CCOCCOC(=O)c1[nH]c2c(c1C)C(=O)CC(c1ccccc1)C2 (configuration not stated) | > 80 µM (inactive)
CC1C/C(=C/c2ccncc2)C(=O)/C(=C/c2ccncc2)C1 (configuration not stated) | 1.39 µM
O=C(NCc1cccs1)C1CCN(c2ccc(S(=O)(=O)N3CCOCC3)cc2Cl)CC1 | 25.6 µM (inactive)
Clc1cccc(Cl)c1OCCOCCNCc1ccccc1 | > 80 µM (inactive)
C=C(C=O)C[C@@H]1C[C@H](O)C2OC3C[C@]4(C)OC5/C=C\CC6OC7C(CC=CCC6OC5CCCC4OC3CC2O1)OC1CC2OC3CC(=O)OC3C[C@@H](C)C[C@@]2(C)OC1C[C@@H]7C (some centres not stated) | 1.39 µM
O=C(Sc1cccc2cccnc12)c1ccccc1Br | 3.21 µM
CN1/C(=C\C(=O)C[n+]2ccc3ccccc3c2)C(C)(C)c2ccccc21 | 38 µM (inactive)
Cc1ccc(S(=O)(=O)Nc2cccc(-c3ccc4nncn4n3)c2)cc1 | > 80 µM (inactive)
Cc1cc(C(=O)N2CC=C(c3ccccc3)CC2)c2ccccc2n1 | 75.7 µM (inactive)
CCOC(=O)c1ccccc1NS(=O)(=O)c1ccc(OCC)cc1 | 78.3 µM (inactive)
Cc1ccc2c(c1)C=CC(C#N)N2C(=O)c1ccccc1 (configuration not stated) | > 80 µM (inactive)
Cn1cc(/C=N/n2cnc3scc(-c4ccc(Cl)cc4)c3c2=O)c2ccccc21 | > 80 µM (inactive)
C/C=C(\C)C(=O)N[C@@H](c1ccccc1)[C@@H](O)C(=O)O[C@H]1C[C@@]2(O)[C@@H](OC(=O)c3ccccc3)C3[C@](C)(C(=O)[C@H](OC(C)=O)C(=C1C)C2(C)C)[C@H](O)C[C@H]1OC[C@@]31OC(C)=O (some centres not stated) | < 0.16 µM
Cc1csc2sc(-c3ccnc(SCC(=O)NCc4ccccc4)n3)c(C)c12 | 17 µM
Cc1nc(Nc2nc3c(c(=O)[nH]2)CCC3)nc2ccccc12 | 3.66 µM
Cc1ccc(C[n+]2c(-c3ccc(C)cc3)cc(-c3ccc(C)cc3)cc2-c2ccc(C)cc2)cc1 | 2.35 µM
Cc1ccc(S(=O)(=O)NCc2ccncc2)c(C)c1C | > 80 µM (inactive)
CCN(c1ccccc1)S(=O)(=O)c1ccc(C(=O)NC2CCN(Cc3ccccc3)CC2)cc1 | 33 µM (inactive)
O=C(NCCOc1ccccc1)c1cc([N+](=O)[O-])ccc1N1CCOCC1 | > 80 µM (inactive)
COC(=O)c1nn(-c2ccc3c(c2)CCN3C(C)=O)cc1O | 1.14 µM

SMILES | IC50
CCCCc1ccc(NC(=O)c2ccc(N(C)S(C)(=O)=O)cc2)cc1 | < 0.16 µM
CCOC(=O)c1[nH]c2c(c1C)C(=O)CC(c1ccc(F)cc1)C2 (configuration not stated) | > 80 µM (inactive)
CCN(CC)c1ccc(/C=N/NC(=O)c2cccc(S(=O)(=O)Nc3ccccc3OC)c2)c(O)c1 | 3.37 µM
COc1cc(C2C(C#N)=C(N)Oc3cc(N(C)C)ccc32)cc2c1OCO2 (configuration not stated) | > 80 µM (inactive)
CCCC(=O)NC(c1ccccc1Cl)c1ccc2cccnc2c1O (configuration not stated) | 2.81 µM
CCCSc1nnc(Sc2nnnn2-c2ccccc2)s1 | 2.09 µM
Cc1ccc(NS(=O)(=O)c2ccc(-c3cnc(C4CC4)o3)cc2)c(C)c1 | 14.8 µM
CCC/C(O)=C1\C(=O)CC(C)(C)CC1=Nc1ccc(OC)cc1OC | > 80 µM (inactive)
CCC(=O)NC(c1cccs1)c1ccc2cccnc2c1O (configuration not stated) | 60.4 µM (inactive)
CC(C)(C)c1nnc(N/N=C/c2ccccc2O)n(N)c1=O | 12.2 µM
CS(=O)(=O)c1ccc(Sc2nc3ccccc3s2)c([N+](=O)[O-])c1 | 0.89 µM
C[C@]12CC[C@H]3[C@@H](CC[C@]4(O)C[C@@H](O)CC[C@]34C=O)[C@@]1(O)CC[C@@H]2C1=CC(=O)OC1 | 68.9 µM (inactive)
Cc1cc(-c2ccc(C)c(S(=O)(=O)N3CCN(c4ccc([N+](=O)[O-])cc4)CC3)c2)on1 | > 80 µM (inactive)
N#C/C(=C\c1ccc(OCc2ccc(C(=O)O)cc2)cc1)C(=O)N1CCOCC1 | 1.55 µM
O=C1C=C(c2ccc3ncccc3c2)C[C@@H](c2ccc3c(c2)OCO3)C1 | > 80 µM (inactive)
CC(C)Oc1ccccc1C1CC(=O)Nc2cc3c(cc21)OCCO3 (configuration not stated) | > 80 µM (inactive)
CCOc1ccccc1C(=O)N1CCN(c2cccc(Cl)c2)CC1 | > 80 µM (inactive)
O=C(N/N=C\c1c(O)ccc2ccccc12)c1ccc(S(=O)(=O)N2CCCCC2)cc1 | 0.98 µM
COc1cccc(-c2cc(=O)c3cc(NC(=O)c4ccccc4)ccc3[nH]2)c1 | > 80 µM (inactive)
COc1ccc(C2=NOC(C(=O)NCc3cccs3)C2)cc1OC (configuration not stated) | > 80 µM (inactive)
C=CC[C@@H](CC/C=C/C=C/CC/C=C\[C@@H]1CSC([C@@H]2C[C@@H]2C)=N1)OC | 50.8 µM (inactive)
O=C(N/N=C\c1c(O)ccc2ccccc12)c1cncc(Br)c1 | 4.01 µM
CCOc1ccc(S(=O)(=O)NCc2ccccn2)cc1NC(=O)c1ccccc1 | > 80 µM (inactive)

SMILES | IC50
COc1ccc(CS(=O)/C(Cl)=C(/Cl)C(=O)Nc2ccc(OC)nc2)cc1 (configuration not stated) | 0.54 µM
COc1ccc(Br)cc1/C(C)=N/NC1=NCCN1 | > 80 µM (inactive)
CCN1/C(=C/c2ccc3ccccc3[n+]2CC)C=Cc2ccccc21 | 11.2 µM
C#Cc1ccc([C@@H]2C=C(C(=O)N3CCN(Cc4ccccc4)CC3)O[C@H](OCCCCO)C2)cc1 | > 80 µM (inactive)
Cc1ccc2oc(/N=C(\N)NC(=O)C(C)(C)C)nc2c1 | 6.68 µM
COc1ccc(-n2nnnc2-c2ccccc2)cc1 | > 80 µM (inactive)
COc1ccc(COC(=O)c2cc([N+](=O)[O-])ccc2N2CCOCC2)cc1F | > 80 µM (inactive)
COC(=O)c1ccc(C)c(NS(=O)(=O)c2ccc3c(c2)OCCO3)c1 | > 80 µM (inactive)
COc1ccccc1-c1nnc2n1N=C(c1ccc(O)c(O)c1)CS2 | 7.43 µM
COC(=O)c1[nH]c2c(c1C)C(=O)CC(c1cccs1)C2 (configuration not stated) | > 80 µM (inactive)
CCn1c(C)cc(C(=O)CN2C(=O)c3ccccc3S2(=O)=O)c1C | 1.68 µM
O=S(=O)(Nc1cccc2ncccc12)c1cccs1 | 0.89 µM
CCOc1ccccc1NC(=O)Cn1nnc(C(=O)NCc2cccs2)c1N | > 80 µM (inactive)
CCOc1ccc(S(=O)(=O)N2c3ccccc3CC2C)cc1 (configuration not stated) | 8.42 µM
CN(C)c1ccc(-c2nn3c(-c4ccccc4Cl)nnc3s2)cc1 | > 80 µM (inactive)
CC(=O)O[C@@]12CO[C@@H]1C[C@@H](O)[C@@]1(C)C(=O)[C@H](O)C3=C(C)[C@@H](OC(=O)[C@H](O)[C@@H](NC(=O)c4ccccc4)c4ccccc4)C[C@@](O)([C@@H](OC(=O)c4ccccc4)C12)C3(C)C (some centres not stated) | < 0.16 µM
CC(=O)O[C@H]1C(=O)[C@@]2(C)[C@H]([C@H](OC(=O)c3ccccc3)[C@]3(O)C[C@H](OC(=O)[C@H](O)[C@@H](NC(=O)c4ccccc4)c4ccccc4)C(C)=C1C3(C)C)[C@]1(OC(C)=O)CO[C@@H]1C[C@@H]2O | 11 µM
COCCn1c(C)cc(C2=NNC(=Nc3ccccc3F)SC2)c1C | 64.3 µM (inactive)
O=C(O)c1ccc(N/N=C/c2ccc3c(c2)OCO3)cc1 | 2.78 µM
COc1ccc(C[C@H](N)C(=O)N[C@H]2[C@@H](O)[C@H](n3cnc4c(N(C)C)ncnc43)O[C@@H]2CO)cc1 | 0.96 µM
CC(=O)N(C)C1=C(N2CCOCC2)C(=O)c2ccccc2C1=O | 9.87 µM
Cc1ccc(S(=O)(=O)Cc2ccc(C(=O)N3CCN(c4cccc(C)c4C)CC3)o2)cc1 | 15.8 µM
Nc1nc(Cl)cc(N2CCC(c3cc(-c4ccc(Cl)cc4)n[nH]3)CC2)n1 | 1.87 µM

SMILES | IC50
CCn1c2ccccc2c2cc(Nc3cc(C)nc4ncnn34)ccc21 | > 80 µM (inactive)
CCCCCC(=O)N[C@@H](c1ccccc1)[C@@H](O)C(=O)O[C@H]1C[C@@]2(O)[C@@H](OC(=O)c3ccccc3)C3[C@](C)(C(=O)[C@H](OC(C)=O)C(=C1C)C2(C)C)[C@@H](O)C[C@H]1OC[C@@]31OC(C)=O (some centres not stated) | 32.3 µM (inactive)
CCOc1ccc(-c2[nH]ncc2-c2ccc(OC)c(OC)c2)c(O)c1 | 28.4 µM (inactive)
CCOC(=O)C(C)Oc1cccc2c(=O)n(CC(=O)NCc3ccc4c(c3)OCO4)ccc12 (configuration not stated) | 9.88 µM
COc1ccc(CC(=O)Nc2nc(-c3ccc(F)c(F)c3)cs2)cc1OC | 22.4 µM (inactive)
C[C@@H]1O[C@@H](O[C@H]2C[C@@H](O)[C@]3(CO)[C@@H]4C(CC[C@]3(O)C2)[C@@]2(O)CC[C@H](C3COC(=O)C3)[C@@]2(C)C[C@H]4O)[C@H](O)[C@H](O)[C@H]1O (some centres not stated) | 23.3 µM (inactive)
COc1ccc2c(c1)/C(=C/c1cnc[nH]1)C(=O)N2 | 6.51 µM
CC(C)c1oc(=O)cc2c1[C@@H](O)[C@H]1OC(=O)[C@@]3(C)CC[C@@H](O)[C@@]2(C)C13 (some centres not stated) | 2.54 µM
O=S(=O)(c1cc(F)ccc1F)N1CCN(c2ncnc3ccccc23)CC1 | > 80 µM (inactive)
COC(=O)c1ccccc1NC(=O)CSc1nc(-c2ccco2)cc(C(F)(F)F)n1 | 72.2 µM (inactive)
C=CCn1c(SCc2c(C)noc2C)nc2ccccc2c1=O | 23 µM (inactive)
CC(C)n1c(CN(C)Cc2ccccc2)nc2c1c(=O)n(C)c(=O)n2C | > 80 µM (inactive)
COc1ccc(C(=O)Nc2ccc3[nH]c(-c4cccc(OC)c4)cc(=O)c3c2)cc1 | < 0.16 µM
CC(=O)c1c(C)[nH]c(C(=O)OCC(=O)Nc2ccc(C)cc2[N+](=O)[O-])c1C | > 80 µM (inactive)
O=C(Nc1cccc2ccccc12)OC1C=CS(=O)(=O)C1 (configuration not stated) | 1.06 µM
Cc1nc(Sc2nnnn2C)c2c3c(sc2n1)CCC3 | 5.19 µM
COc1ccc(-[n+]2c(-c3ccccc3)cc(-c3ccc(C)cc3)cc2-c2ccccc2)cc1 | 4.95 µM
Cc1cc(C)c(CN2CCN(C(=O)Cn3cnc4c(OCc5ccccc5)ncnc43)CC2)c(C)c1 | > 80 µM (inactive)
NS(=O)(=O)c1ccc(Sc2nc3ccccc3s2)c([N+](=O)[O-])c1 | 0.79 µM
O=C(COc1ccc(C(=O)c2ccccc2)cc1)NCc1ccc(F)cc1 | 29.2 µM (inactive)
CCOC(=O)N=Nc1c2ccccc2c2nc3no[nH]c3nc12 | 0.73 µM
CCn1nc(C)c(CNC(=O)c2ccc(OC3CCN(Cc4ccccn4)CC3)cc2)c1C | > 80 µM (inactive)
COc1cc(C(=O)N2CCN(c3cc(Cl)ccc3Cl)CC2)cc(OC)c1OC | 24.5 µM (inactive)
